From patent US20260158009A1 (GENZYME CORPORATION, priority 2023, published 2026) come the findings set out here.

One assay concerns U937 cells. The assay can be described thus: Cellular assay in U937 cells: activity of RIPK1 inhibitors on TNFα/zVAD.fmk-induced cell death (necroptosis), CellTiter 96 AQueous (MTS) readout. As to conditions: Homo sapiens, U-937. It is filed as cell-based. A digest of the protocol:
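Necroptosis was measured by viable-cell MTS reduction (4 h, absorbance 490 nm) after overnight (18–24 h) 37° C culture. Cell suspensions of U937 cells carried TNFα (100 ng/ml) plus zVAD.fmk (50 μM) before compound was added. A 10-point curve (10 μM–0.26 nM or 1 μM–0.07 nM) was run in duplicate, normalised to the control lacking TNFα/zVAD.fmk.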

In assay [1] the target is T1, hRIPK1 (aa 1-375) fusion protein (Homo sapiens, UniProt Q13546).
T1 construct: hRIPK1 (aa 1-375) fusion protein
T1 sequence (Q13546 1-375): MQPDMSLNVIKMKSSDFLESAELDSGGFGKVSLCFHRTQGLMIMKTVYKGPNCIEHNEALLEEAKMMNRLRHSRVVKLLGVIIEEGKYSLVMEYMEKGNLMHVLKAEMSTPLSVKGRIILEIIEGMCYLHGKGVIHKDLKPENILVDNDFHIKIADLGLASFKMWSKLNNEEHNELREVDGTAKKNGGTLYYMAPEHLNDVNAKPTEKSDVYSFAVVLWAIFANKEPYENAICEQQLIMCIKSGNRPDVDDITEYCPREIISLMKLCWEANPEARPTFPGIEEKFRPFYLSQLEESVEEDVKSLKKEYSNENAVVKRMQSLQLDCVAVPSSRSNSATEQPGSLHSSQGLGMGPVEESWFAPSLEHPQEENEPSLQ
Put plainly: ADP-Glo kinase assay: catalytic activity of RIPK1 (autophosphorylation, conversion of ATP to ADP). It is filed as biochemical. An outline of the steps:
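The readout was ADP-Glo luminescence after a 240 min rt autophosphorylation reaction with 50 μM ATP, following 30 min preincubation of 3.6 μg/ml hRIPK1 (aa 1-375) fusion with compound at 33300-1.69 nM final in 1% DMSO. Values came from Levenberg-Marquardt nonlinear fits.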
In general terms: In ADP-Glo the light output rises with the ADP produced.

One may read the IC50 as the concentration at which inhibition is half-maximal. In the case of `N#Cc1cc(F)cc([C@@H]2CCON2C(=O)[C@H]2CC[C@H](Cn3ccc4ccc(C(N)=O)cc43)CC2)c1` [compound 104, trans-1-((4-((S)-3-(3-cyano-5-fluorophenyl)isoxazolidine-2-carbonyl)cyclohexyl)methyl)-1H-indole-6-carboxamide], the half-inhibitory concentration (IC50) in the assay on U937 cells came out at 5 nM; in assay [1], 18 nM.

For `N#Cc1cncc([C@@H]2CCON2C(=O)[C@H]2CC[C@H](Cn3cc4ccc(C#N)cc4n3)CC2)c1` [compound 127, trans-2-((4-((S)-3-(5-cyanopyridin-3-yl)isoxazolidine-2-carbonyl)cyclohexyl)methyl)-2H-indazole-6-carbonitrile], the 50% inhibitory concentration (IC50) is 15 nM in the assay with U937 cells and 29 nM in assay [1].

With `Cc1cc([C@@H]2CCON2C(=O)[C@H]2CC[C@H](Cn3cc4ccc(C#N)cc4n3)CC2)co1` [compound 41, trans-2-((4-((S)-3-(5-methylfuran-3-yl)isoxazolidine-2-carbonyl)cyclohexyl)methyl)-2H-indazole-6-carbonitrile], the 50% inhibitory concentration (IC50) in the assay with U937 cells was 91 nM; in assay [1], 30 nM.

As for `N#Cc1cc(F)cc([C@@H]2CCON2C(=O)[C@H]2CC[C@H](Cn3ncc4cc(C#N)c(F)cc43)CC2)c1` [compound 66, trans-1-((4-((S)-3-(3-cyano-5-fluorophenyl)isoxazolidine-2-carbonyl)cyclohexyl)methyl)-6-fluoro-1H-indazole-5-carbonitrile], the concentration for half-maximal inhibition (IC50) with U937 cells is 2 nM; in assay [1] it was 18 nM.

As to `Cc1cnc([C@@H]2CCON2C(=O)[C@H]2CC[C@H](Cc3cc(C)ncc3Cl)CC2)cn1` [compound 385, trans-[4-[(5-chloro-2-methylpyridin-4-yl)methyl]cyclohexyl]-[(3S)-3-(5-methylpyrazin-2-yl)-1,2-oxazolidin-2-yl]methanone], the half-maximal inhibitory concentration (IC50) in the assay on U937 cells worked out at 3 nM; in assay [1], 24 nM.

`Cc1cn2ncc(C[C@H]3CC[C@H](C(=O)N4OCC[C@H]4c4cccc(F)c4)CC3)cc2n1` [compound 323, [2-fluoro-4-[(3S)-2-[4-[(2-methylimidazo[1,2-b]pyridazin-7-yl)methyl]cyclohexanecarbonyl]isoxazolidin-3-yl]phenyl]]: the 50% inhibitory concentration (IC50) in the assay on U937 cells stood at 6 nM; in assay [1] it was 10 nM.

As for `Cc1nc2c(F)cc(C[C@H]3CC[C@H](C(=O)N4OCC[C@H]4c4cncc(F)c4)CC3)cn2n1` [compound 380], the results for the IC50 (in the assay with U937 cells; in assay [1]) were 129 nM and 70 nM, respectively.

For `Cc1ccc([C@@H]2CCON2C(=O)[C@H]2CC[C@H](Cc3ccnn3C)CC2)cn1` [compound 397, trans-[4-[(2-methylpyrazol-3-yl)methyl]cyclohexyl]-[(3S)-3-(6-methylpyridin-3-yl)-1,2-oxazolidin-2-yl]methanone], the IC50 with U937 cells is 163 nM; in assay [1], 61 nM.

As for `Cn1ncc2ccc(C[C@H]3CC[C@H](C(=O)N4OCC[C@H]4c4cc(F)cc(F)c4)CC3)cc21` [compound 295, trans-[(3S)-3-(3,5-difluorophenyl)isoxazolidin-2-yl]-[4-[(1-methylindazol-6-yl)methyl]cyclohexyl]methanone], the IC50 in the assay on U937 cells is 1 nM; in assay [1], 6 nM.

On to `NC(=O)c1cc(C[C@H]2CC[C@H](C(=O)N3OCC[C@H]3c3cc(F)cc(F)c3)CC2)ccc1F` [compound 192, trans-5-[[4-[(3S)-3-(3,5-difluorophenyl)isoxazolidine-2-carbonyl]cyclohexyl]methyl]-2-fluoro-benzamide], for which the IC50 in the assay on U937 cells stood at 3 nM; in assay [1], 5 nM.

Turning to `Cc1nccn1-c1cc(F)cc(C[C@H]2CC[C@H](C(=O)N3OCC[C@H]3c3cc(F)cc(C#N)c3)CC2)c1` [compound 216, trans-3-fluoro-5-[(3S)-2-[4-[[3-fluoro-5-(2-methylimidazol-1-yl)phenyl]methyl]cyclohexanecarbonyl]isoxazolidin-3-yl]benzonitrile], the concentration for half-maximal inhibition (IC50) in the assay on U937 cells amounted to 10 nM; in assay [1], 15 nM.

Consider `Cc1ncc(C[C@H]2CC[C@H](C(=O)N3OCC[C@H]3c3cc(F)cc(F)c3)CC2)cc1C#N` [compound 267, trans-5-[[4-[(3S)-3-(3,5-difluorophenyl)isoxazolidine-2-carbonyl]cyclohexyl]methyl]-2-methyl-pyridine-3-carbonitrile], for which the IC50 stood at 2 nM in the assay on U937 cells and 12 nM in assay [1].

As for `Cn1cc(C[C@H]2CC[C@H](C(=O)N3OCC[C@H]3c3cnccn3)CC2)cn1` [compound 151, trans-[4-[(1-methylpyrazol-4-yl)methyl]cyclohexyl]-[(3S)-3-pyrazin-2-ylisoxazolidin-2-yl]methanone], the IC50 in the assay with U937 cells stood at 214 nM; in assay [1], 46 nM.

Turning to `Cc1nc2c(F)cc(C[C@H]3CC[C@H](C(=O)N4OCC[C@H]4c4cc(F)cc(F)c4)CC3)cn2n1` [compound 285, trans-[(3S)-3-(3,5-difluorophenyl)isoxazolidin-2-yl]-[4-[(8-fluoro-2-methyl-[1,2,4]triazolo[1,5-a]pyridin-6-yl)methyl]cyclohexyl]methanone], the half-inhibitory concentration (IC50) with U937 cells worked out at 10 nM; in assay [1], 11 nM.

For `Cc1nc([C@@H]2CCON2C(=O)[C@H]2CC[C@H](Cn3ncc4ccc(C#N)cc43)CC2)cs1` [compound 204, trans-1-[[4-[(3S)-3-(2-methylthiazol-4-yl)isoxazolidine-2-carbonyl]cyclohexyl]methyl]indazole-6-carbonitrile], the IC50 with U937 cells amounted to 2 nM; in assay [1] it was 21 nM.

In the case of `Cc1ncc(C[C@H]2CC[C@H](C(=O)N3OCC[C@H]3c3ccc(F)c(F)c3)CC2)cn1` [compound 309, trans-[(3S)-3-(3,4-difluorophenyl)isoxazolidin-2-yl]-[4-[(2-methylpyrimidin-5-yl)methyl]cyclohexyl]methanone], the values for the IC50 (in the assay on U937 cells; in assay [1]) were 50 nM and 15 nM, respectively.

As to `Cn1cncc1C[C@H]1CC[C@H](C(=O)N2OCC[C@H]2c2cc(F)cc(C#N)c2)CC1` [compound 167, trans-3-fluoro-5-[(3S)-2-[4-[(3-methylimidazol-4-yl)methyl]cyclohexanecarbonyl]isoxazolidin-3-yl]benzonitrile], the results for the half-inhibitory concentration (IC50) (in the assay on U937 cells; in assay [1]) were 100 nM and 104 nM, respectively.

Turning to `N#Cc1cnc2cnn(C[C@H]3CC[C@H](C(=O)N4OCC[C@H]4c4ccccn4)CC3)c2c1` [compound 187, trans-1-[[4-[(3S)-3-(2-pyridyl)isoxazolidine-2-carbonyl]cyclohexyl]methyl]pyrazolo[4,3-b]pyridine-6-carbonitrile], the half-inhibitory concentration (IC50) with U937 cells was determined as 121 nM; in assay [1], 51 nM.

On to `Cc1cc(C[C@H]2CC[C@H](C(=O)N3OCC[C@H]3c3cnccn3)CC2)c(Cl)cn1` [compound 396, trans-[4-[(5-chloro-2-methylpyridin-4-yl)methyl]cyclohexyl]-[(3S)-3-pyrazin-2-yl-1,2-oxazolidin-2-yl]methanone], for which the IC50 turned out to be 4 nM with U937 cells and 14 nM in assay [1].

Consider `Cc1ccc([C@@H]2CCON2C(=O)[C@H]2CC[C@H](Cc3cc(F)c4nc(C)cn4c3)CC2)cn1` [compound 351, trans-[4-[(8-fluoro-2-methylimidazo[1,2-a]pyridin-6-yl)methyl]cyclohexyl]-[(3S)-3-(6-methylpyridin-3-yl)-1,2-oxazolidin-2-yl]methanone], for which the IC50 amounted to 149 nM with U937 cells and 210 nM in assay [1].

`Cc1cc([C@@H]2CCON2C(=O)[C@H]2CC[C@H](Cn3ncc4ccc(C#N)cc43)CC2)co1` [compound 43, trans-1-((4-((S)-3-(5-methylfuran-3-yl)isoxazolidine-2-carbonyl)cyclohexyl)methyl)-1H-indazole-6-carbonitrile]: the IC50 in the assay with U937 cells came out at 1 nM; in assay [1], 18 nM.

With `N#Cc1cnc2cnn(C[C@H]3CC[C@H](C(=O)N4OCC[C@H]4c4cc(F)cc(F)c4)CC3)c2c1` [compound 26, trans-1-((4-((S)-3-(3,5-difluorophenyl)isoxazolidine-2-carbonyl)cyclohexyl)methyl)-1H-pyrazolo[4,3-b]pyridine-6-carbonitrile], the 50% inhibitory concentration (IC50) was found to be 2 nM in the assay on U937 cells and 20 nM in assay [1].

On to `Cc1cc(C[C@H]2CC[C@H](C(=O)N3OCC[C@H]3c3cc(F)cc(C#N)c3)CC2)nc(C)n1` [compound 312, 3-[(3S)-2-[4-[(2,6-dimethylpyrimidin-4-yl)methyl]cyclohexanecarbonyl]isoxazolidin-3-yl]-5-fluoro-benzonitrile], for which the IC50 in the assay on U937 cells came out at 20 nM; in assay [1], 38 nM.

For `Cc1nc2ccc(C[C@H]3CC[C@H](C(=O)N4OCC[C@H]4c4ccc(F)cc4)CC3)cn2n1` [compound 260, trans-[(3S)-3-(4-fluorophenyl)isoxazolidin-2-yl]-[4-[(2-methyl-[1,2,4]triazolo[1,5-a]pyridin-6-yl)methyl]cyclohexyl]methanone], the concentration for half-maximal inhibition (IC50) amounted to 25 nM in the assay with U937 cells and 32 nM in assay [1].

In the case of `Cc1cn2cc(C[C@H]3CC[C@H](C(=O)N4OCC[C@H]4c4cc(F)cc(F)c4)CC3)ccc2n1` [compound 227, trans-[(3S)-3-(3,5-difluorophenyl)isoxazolidin-2-yl]-[4-[(2-methylimidazo[1,2-a]pyridin-6-yl)methyl]cyclohexyl]methanone], the IC50 came out at 5 nM with U937 cells and 23 nM in assay [1].
